Experimental data: patent US11260116B2, “Vaccine compositions comprising an amphipathic compound, a neoantigen and a hydrophobic carrier, and methods of use thereof” (IMMUNOVACCINE TECHNOLOGIES INC., priority 2016, dated 2022)
Like-named read-outs stand apart in the source and are kept apart here.

Columns and labels:
[1] = cited from earlier work
mutated peptide = conditions: aqueous formulation, mice, cited from earlier work
Mut30 neoantigen = experiment: IFN-gamma ELISPOT of splenocytes from vaccinated mice; format: in vivo; conditions: Example 3, FIG. 2; C57BL/6 VAF/Elite Crl mice; DNA- or RNA-based poly I:C; single immunization; eight days after vaccination
Description: Pathogen free, C57BL/6 VAF/Elite® Crl mice, 6-8 weeks of age, were purchased from Charles River Laboratories (St. Constant, PQ) and housed according to institutional guidelines with water and food ad libitum under filter controlled air circulation.
Eight days after vaccination, mice were terminated and spleens collected. […] After 18 hours of culture, plates were developed and the number of spot forming units (SFU) counted using Immunospot Reader (C.T.L.). […] Statistical analysis was performed by 2-way ANOVA with Bonferroni post test comparing group responses to Mut30 peptide: *p<0.05, ***p<0.001.
Oil-based depot vaccine formulations were prepared with Mut30 antigen at a higher (100 micrograms) and lower (50 micrograms) dose.
To prepare the oil-based formulations, the Mut30 peptide (low or high dose amount), polyI:C adjuvant (DNA or RNA) and T-helper epitope (A16L peptide) were first reconstituted in an acetate buffer (0.1M, pH 9.5) with DOPC and cholesterol (Lipoid, Germany). The vaccine components were then lyophilized to form a dry cake. Just prior to injection, the dry cake was reconstituted in ISA51 VG oil (SEPPIC, France).
Mice in group 1 (n=6) were vaccinated with 100 microliters of an oil-based depot vaccine containing 100 micrograms of Mut30 neoantigen, 50 micrograms of A16L peptide, 40 micrograms of DNA-based poly I:C, 12 milligrams of DOPC and 1.2 milligrams of cholesterol. […]

Row | Molecule | bioavailability by route of administration ([1]; intravenous infusion vs parenteral and oral) | Total systemic clearance of CPA and its metabolites ([1]; patients) [h] | elimination half-life on repeated administration ([1]; repeated administration) | peak plasma levels of the parent ([1]; vary between patients) [h] | immune reaction to Mut30 reported by Castle 2012 (mutated peptide) | immune reaction to Mut30 reported by Castle 2012 (mutated peptide; listed as Mut30 neoantigen) | IFN-gamma ELISPOT immune response to Mut30, high (100 micrograms) vs low (50 micrograms) dose (Mut30 neoantigen)
1 | O=P1(N(CCCl)CCCl)NCCCO1 (stereo not shown) [Cyclophosphamide, N,N-bis(2-chloroethyl)-1,3,2-oxazaphosphinan-2-amine 2-oxide] | little difference in bioavailability | 5 to 9 | shorten elimination half-life | 3 to 11 |  |  | 
2 | Mut30: Kif18b neoantigen (K739N) from B16F10 melanoma, PSKPSFQEFVDWENVSPELNSTDQPFL (SEQ ID NO: 2), from Castle 2012 (Mut30 Neoantigen) |  |  |  |  | strong immune reaction preferentially against the mutated peptide | strong mutation-specific immune responses | No statistically significant difference
